“Also recorded” adds a separate entry of the source.
Tests used:
MOVAS cells = assay: Cytotoxicity assay, LDH release; type: cell-based, mouse; settings: at 2 uM
Protocol: A) Alizarin red staining of MOVAS cells stimulated with CPP for 24 h in DMEM+10% FBS in presence of different concentrations of compound 22401. […] The background (Alizarin red staining obtained with cells in the absence of CPP) was subtracted from all values. B) Percentage of cytotoxicity, as measured by LDH release, in MOVAS cells in the same conditions as A). Statistical analysis was determined using one-way ANOVA with *p<0.05, **p<0.01, ***p<0.001.
Measurement of lactate dehydrogenase (LDH) as a means of cytotoxicity assay was performed with using CytoTox-ONE Homogeneous Membrane Integrity Assay (Promega) according to the manufacturer's instructions. Values were calculated as percentage of cytotoxicity using the following formula: [(value in sample)−(background)]/[(value in Triton X-100-treated sample)−(background)]×100.

ATDCS chondrocytes = assay: ATDCS chondrocyte mineralization (Alizarin red); type: cell-based; settings: sCPP 24 h, different concentrations
Protocol: Alizarin red staining of ATDCS chondrocytes stimulated with sCPP for 24 h in DMEM+10% FBS in presence of different concentrations of compounds C5 and C6. The graphs show Alizarin red absorbance at 570-630 nm. Statistical analysis (in comparison to 0) was determined using one-way ANOVA with *p<0.05, **p<0.01, ***p<0.001, […].

[1] = test system: WT murine primary chondrocytes; assay: Murine primary chondrocyte calcification (Alizarin red); type: cell-based, mouse; settings: sCPP 24 h, DMEM+10% FBS, 50 uM
Protocol: (a) WT and Cse-deficient chondrocytes were incubated with a CSE activator (SU004, 50 μM) previously identified by high-through put screen, or with the equivalent volume of DMSO (0.1%) for 24 hours in calcification medium. STS 25 mM was used as a positive control for calcification inhibition. Calcium-containing crystals were stained with Alizarin red and quantified. (b) Cytotoxicity was assessed by LDH measurement and expressed as % over 100% cytotoxicity. (c) IL-6 secretion was measured by ELISA in supernatant of WT chondrocytes incubated with SU004 50 μM or STS 25 mM for 24 hours in calcification medium. (d) Primary human chondrocytes from 3 OA patients (P1, P2, P3) were incubated with SU004 50 μM, or with the equivalent volume of DMSO (0.1%) for 24 hours in calcification medium. Calcium-containing crystals were stained with Alizarin red and quantified. (e) Cytotoxicity was assessed by LDH measurement and expressed as % over 100% cytotoxicity. (f) IL-6 secretion was measured by ELISA in supernatant of human chondrocytes incubated for 24 hours with SU004 50 μM in calcification medium. *p<0.05, ** p<0.01, ****p<0.0001.
Primary murine chondrocytes were stimulated with secondary calciprotein particles (sCPP) for 24 h in DMEM+10% FBS in presence of C5 or C6 at 50 uM or vehicle (DMSO). Mineralization was analyzed by Alizarin red staining of the cells (A) and quantified (B). Statistical analysis was determined using one-way ANOVA with **p<0.01 and ***p<0.001.
Chondrocytes were isolated from 6 days old mice (Cse KO, Cse tg, Cbs KO and corresponding WT mice) as described previously (Nasi, So, et al. 2016). Tenocytes were isolated from 6 to 8 weeks old mice (Cse KO and WT) and by double digestion in Collagenase IV NB standard grade (Witec AG). […]
After incubation in calcification media, supernatant was collected for ELISA and LDH measurement, and cell monolayer was washed in PBS, fixed in 10% formol and crystal deposition analyzed through Alizarin red staining and quantified as previously described

HaCaT cells = assay: Human keratinocyte line mineralization (Alizarin red); type: cell-based; settings: secondary CPP 24 h, different concentrations; listed as Z20
Protocol: Immortalized human keratinocytes HaCaT cells were stimulated with secondary CPP and different concentrations of the compound Z20 for 24 h. Cells were then stained with Alizarin Red. […] Statistical analysis was determined using one-way ANOVA with *p<0.05, ***p<0.001.

CSE ko primary VSMC = assay: Primary vascular smooth muscle cell mineralization, CSE ko; type: cell-based, mouse; settings: secondary CPP 24 h, 50 uM
Protocol: (§1) Primary VSMC were isolated from wild-type (WT) or CSE-deficient (CSE ko) mice. A) Alizarin red staining of WT or CSE ko VSMC stimulated with secondary CPP for 24 h in DMEM+10% FBS and treated or not with 50 uM of compound Z20. […] Statistical analysis was determined using one-way ANOVA (compared to WT vehicle) with ***p<0.001, ****p<0.0001.

WT primary VSMC = assay: Primary vascular smooth muscle cell mineralization, wild type; type: cell-based, mouse; settings: secondary CPP 24 h, 50 uM, listed as Z20
Protocol: as §1

primary murine tenocytes = assay: Primary murine tenocyte mineralization (Alizarin red); type: cell-based, mouse; settings: secondary CPP 24 h, 50 uM; listed as Z20
Protocol: A) Alizarin red absorbance at 570-630 nm of primary murine tenocytes stimulated with secondary CPP for 24 h in DMEM+10% FBS and treated or not with 50 uM of Z20. B) Percentage of cytotoxicity (LDH %) in tenocytes treated or not with Z20 for 24 h. Statistical analysis was determined using one-way ANOVA with ***p<0.001.
Chondrocytes were isolated from 6 days old mice (Cse KO, Cse tg, Cbs KO and corresponding WT mice) as described previously (Nasi, So, et al. 2016). Tenocytes were isolated from 6 to 8 weeks old mice (Cse KO and WT) and by double digestion in Collagenase IV NB standard grade (Witec AG). Chondrocytes were amplified in DMEM with 10% FBS and 1% Penicillin Streptomycin and used at P1. Tenocytes were amplified in αDMEM with 10% FBS, 0.2 mM L-ascorbic acid, 2-phosphate and 1% Penicillin Streptomycin and used at P1. For crystal formation analysis, cells were cultured for 14 days in calcification medium (BGJb (Gibco) medium with 10% FBS, 0.2 mM L-ascorbic acid, 2-phosphate, 20 mM β-glycerol phosphate and 1% Penicillin Streptomycin). Medium and stimulations were refreshed every 3 days of culture. Alternatively, in some experiments, cells were cultured for 24 h in medium supplemented with secondary calciprotein particles (CPP, final concentration equivalent to […] calcium) to induce calcification as previously described (Aghagolzadeh et al. 2017). […]

| SMILES | Cytotoxicity assay LDH release (% of cytotoxicity) (MOVAS cells) [% at] | Mineralization (Alizarin red absorbance 570-630 nm) (ATDCS chondrocytes) | Mineralization (Alizarin red) [1] | Mineralization (Alizarin red absorbance 570-630 nm) (HaCaT cells) | Mineralization (Alizarin red, % over WT vehicle) (CSE ko primary VSMC) | Mineralization (Alizarin red, % over WT vehicle) (WT primary VSMC) | Mineralization (Alizarin red absorbance 570-630 nm) (primary murine tenocytes) |
| --- | --- | --- | --- | --- | --- | --- | --- |
| Cn1ncc2c(Nc3cnn(CC4CCCO4)c3)ncnc21 (stereo not shown) [Compound 8, N-{1-methyl-1H-pyrazolo[3,4-d]pyrimidin-4-yl}-1-[(oxolan-2-yl)methyl]-1H-pyrazol-4-amine] | 15 | inhibit ATDCS mineralization in vitro in a dose dependent fashion | inhibit primary murine chondrocyte mineralization | – | – | – | – |
| CCn1cnc2c(Nc3cnn(CC4CCCO4)c3)ncnc21 (stereo not shown) [Compound 13] | – | – | – | inhibited calcification; also recorded: inhibits human keratinocyte line mineralization | no inhibition | significant inhibition; also recorded: inhibits primary vascular smooth muscle cell mineralization | inhibited calcification; also recorded: inhibits primary murine tenocyte mineralization |
